US20230416248A1, “COMPOUNDS AND USES THEREOF” (Foghorn Therapeutics Inc., priority 2020, published 2023)
Where two headings read alike, the source gives them in different places.

How the values were obtained:
BRM = biological target: T1, BRM (Homo sapiens, UniProt P51531); experiment: ATPase catalytic activity of BRM, ADP-Glo in vitro biochemical assay; conditions: for IC50: 30 nM BRM, 400 μM ATP; for Ratio* (BRG1 IC50 (μM) divided by BRM IC50 (μM)): selectivity ratio BRG1 IC50 / BRM IC50
T1 construct: made in house; host or cells: High Five insect cells
T1 sequence (P51531 whole entry): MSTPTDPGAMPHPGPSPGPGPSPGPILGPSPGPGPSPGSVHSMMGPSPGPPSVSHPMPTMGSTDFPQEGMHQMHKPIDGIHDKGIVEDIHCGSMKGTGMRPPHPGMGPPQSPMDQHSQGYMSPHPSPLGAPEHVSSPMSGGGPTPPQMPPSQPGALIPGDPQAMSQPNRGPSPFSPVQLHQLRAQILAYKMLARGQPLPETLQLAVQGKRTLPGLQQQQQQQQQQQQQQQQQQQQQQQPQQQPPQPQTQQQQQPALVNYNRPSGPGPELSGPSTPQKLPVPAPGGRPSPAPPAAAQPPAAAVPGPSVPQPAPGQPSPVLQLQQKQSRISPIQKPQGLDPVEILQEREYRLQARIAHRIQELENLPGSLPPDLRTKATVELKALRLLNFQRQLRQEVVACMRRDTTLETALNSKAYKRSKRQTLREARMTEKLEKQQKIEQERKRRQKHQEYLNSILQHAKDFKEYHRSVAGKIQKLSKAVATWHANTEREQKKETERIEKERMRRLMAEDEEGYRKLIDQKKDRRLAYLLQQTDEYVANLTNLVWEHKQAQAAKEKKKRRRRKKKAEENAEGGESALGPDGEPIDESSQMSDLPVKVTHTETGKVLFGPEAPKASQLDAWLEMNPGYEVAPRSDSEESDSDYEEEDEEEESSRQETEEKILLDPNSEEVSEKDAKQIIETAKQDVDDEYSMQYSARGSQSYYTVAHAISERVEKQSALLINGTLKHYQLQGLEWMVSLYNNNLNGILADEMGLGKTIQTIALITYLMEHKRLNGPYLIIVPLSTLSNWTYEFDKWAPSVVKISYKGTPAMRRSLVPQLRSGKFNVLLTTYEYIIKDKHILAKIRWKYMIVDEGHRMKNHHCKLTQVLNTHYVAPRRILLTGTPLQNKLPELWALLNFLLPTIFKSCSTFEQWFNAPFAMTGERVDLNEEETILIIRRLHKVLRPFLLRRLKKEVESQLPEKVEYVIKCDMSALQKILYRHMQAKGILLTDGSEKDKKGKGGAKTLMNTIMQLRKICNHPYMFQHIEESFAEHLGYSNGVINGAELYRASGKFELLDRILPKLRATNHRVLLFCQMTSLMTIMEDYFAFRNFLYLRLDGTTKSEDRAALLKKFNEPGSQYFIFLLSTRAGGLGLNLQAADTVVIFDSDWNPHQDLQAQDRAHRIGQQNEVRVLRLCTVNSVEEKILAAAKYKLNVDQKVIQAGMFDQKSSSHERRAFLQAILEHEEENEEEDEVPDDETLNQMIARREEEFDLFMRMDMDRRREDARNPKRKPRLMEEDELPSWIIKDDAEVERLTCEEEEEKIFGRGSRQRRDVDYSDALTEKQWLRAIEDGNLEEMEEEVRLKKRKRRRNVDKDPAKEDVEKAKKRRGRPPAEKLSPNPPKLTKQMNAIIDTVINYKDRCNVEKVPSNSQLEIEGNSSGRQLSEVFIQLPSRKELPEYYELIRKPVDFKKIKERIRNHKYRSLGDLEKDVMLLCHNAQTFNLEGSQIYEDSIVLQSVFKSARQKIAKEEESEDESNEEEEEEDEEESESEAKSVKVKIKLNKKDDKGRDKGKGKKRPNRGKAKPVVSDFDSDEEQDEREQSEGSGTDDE
Experimental: (§1) The ATPase catalytic activity of BRM or BRG-1 was measured by an in vitro biochemical assay using ADP-Glo™ (Promega, V9102). The ADP-Glo™ kinase assay is performed in two steps once the reaction is complete. The first step is to deplete any unconsumed ATP in the reaction. The second step is to convert the reaction product ADP to ATP, which will be utilized by the luciferase to generate luminesce and be detected by a luminescence reader, such as Envision.
The assay reaction mixture ([…]) contains 30 nM of BRM or BRG-1, 20 nM salmon sperm DNA (from Invitrogen, UfraPure™ Salmon Sperm DNA Solution, cat #15632011), and 400 μM of ATP in the ATPase assay buffer, which comprises of 20 mM Tris, pH 8, 20 mM MgCl2, 50 mM NaCl, 0.1% Tween-20, and 1 mM fresh DTT (Piercer™ DTT (Dithiothreitol), cat #20290). The reaction is initiated by the addition of the 2.5 μL ATPase solution to 2.5 μL ATP/DNA solution on low volume white Proxiplate-384 plus plate (PerkinElmer, cat #6008280) and incubates at room temperature for 1 hour. Then, following addition of 5 μL of ADP-Glo™ Reagent provided in the kit, the reaction incubates at room temperature for 40 minutes. Then, 10 μL of Kinase Detection Reagent provided in the kit is added to convert ADP to ATP, and the reaction incubates at room temperature for 60 minutes. Finally, luminescence measurement is collected with a plate-reading luminometer, such as Envision.

BRG-1 = biological target: T2, BRG-1 (Homo sapiens, UniProt P51532); experiment: ATPase catalytic activity of BRG-1, ADP-Glo in vitro biochemical assay; conditions: 30 nM BRG-1, 400 μM ATP, read-out: BRG1 IC50
T2 construct: made in house; host or cells: High Five insect cells
T2 sequence (P51532 whole entry): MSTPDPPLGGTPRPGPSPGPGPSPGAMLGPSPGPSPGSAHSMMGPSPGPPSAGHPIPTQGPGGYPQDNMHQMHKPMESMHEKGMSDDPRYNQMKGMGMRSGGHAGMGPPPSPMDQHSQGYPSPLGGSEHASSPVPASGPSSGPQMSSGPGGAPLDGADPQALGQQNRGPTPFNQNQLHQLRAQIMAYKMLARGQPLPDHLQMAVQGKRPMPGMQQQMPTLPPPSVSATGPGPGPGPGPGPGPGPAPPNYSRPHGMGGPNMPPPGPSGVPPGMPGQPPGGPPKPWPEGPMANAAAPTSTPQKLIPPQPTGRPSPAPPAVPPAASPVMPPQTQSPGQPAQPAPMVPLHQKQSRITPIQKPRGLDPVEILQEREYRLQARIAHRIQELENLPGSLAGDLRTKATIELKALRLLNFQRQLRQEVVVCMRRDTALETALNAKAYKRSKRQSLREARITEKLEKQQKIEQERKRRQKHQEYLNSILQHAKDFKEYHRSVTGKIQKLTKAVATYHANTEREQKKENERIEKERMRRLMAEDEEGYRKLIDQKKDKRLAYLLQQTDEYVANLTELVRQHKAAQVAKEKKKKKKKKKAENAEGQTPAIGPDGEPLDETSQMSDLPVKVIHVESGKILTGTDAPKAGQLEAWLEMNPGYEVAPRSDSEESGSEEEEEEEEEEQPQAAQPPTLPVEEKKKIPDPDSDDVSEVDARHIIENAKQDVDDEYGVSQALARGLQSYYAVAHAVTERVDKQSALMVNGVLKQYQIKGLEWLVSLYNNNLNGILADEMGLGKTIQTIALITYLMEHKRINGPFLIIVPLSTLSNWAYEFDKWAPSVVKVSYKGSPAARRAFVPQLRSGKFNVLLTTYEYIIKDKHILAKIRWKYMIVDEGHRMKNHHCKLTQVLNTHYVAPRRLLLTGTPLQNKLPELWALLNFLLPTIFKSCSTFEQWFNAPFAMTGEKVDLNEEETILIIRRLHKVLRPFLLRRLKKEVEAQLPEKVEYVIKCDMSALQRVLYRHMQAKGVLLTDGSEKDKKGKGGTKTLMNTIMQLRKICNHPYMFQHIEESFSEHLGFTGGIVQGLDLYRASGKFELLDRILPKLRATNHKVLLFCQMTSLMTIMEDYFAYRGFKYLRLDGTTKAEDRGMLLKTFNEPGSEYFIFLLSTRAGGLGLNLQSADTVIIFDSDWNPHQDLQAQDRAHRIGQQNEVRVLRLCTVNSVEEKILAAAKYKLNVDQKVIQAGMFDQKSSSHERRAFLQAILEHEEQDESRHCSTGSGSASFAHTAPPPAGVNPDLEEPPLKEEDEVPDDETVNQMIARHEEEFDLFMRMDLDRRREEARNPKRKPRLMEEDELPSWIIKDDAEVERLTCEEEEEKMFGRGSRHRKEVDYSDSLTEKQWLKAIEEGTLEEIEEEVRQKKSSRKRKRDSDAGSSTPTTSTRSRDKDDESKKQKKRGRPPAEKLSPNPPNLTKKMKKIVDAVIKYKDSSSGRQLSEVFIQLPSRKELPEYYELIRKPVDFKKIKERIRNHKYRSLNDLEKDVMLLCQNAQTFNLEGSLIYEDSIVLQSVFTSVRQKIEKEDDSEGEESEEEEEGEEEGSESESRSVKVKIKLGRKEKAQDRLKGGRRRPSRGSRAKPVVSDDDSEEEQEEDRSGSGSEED
Experimental: as §1
Then, following addition of 5 μL of ADP-Glo™ Reagent provided in the kit, the reaction incubates at room temperature for 40 minutes. Then, 10 μL of Kinase Detection Reagent provided in the kit is added to convert ADP to ATP, and the reaction incubates at room temperature for 60 minutes. Finally, luminescence measurement is collected with a plate-reading luminometer, such as Envision.

[1] = ATPase catalytic activity, ADP-Glo

| Compound | IC50 (BRM; ADP-Glo ATPase assay) | Ratio* (BRG1 IC50 (μM) divided by BRM IC50 (μM)) (BRM) | IC50 (BRG-1; ADP-Glo ATPase assay) | IC50 (BRM; [1]) | Ratio* (BRM; ratio of BRG1 IC50 to BRM IC50) | IC50 (BRG-1; [1]) | Ratio* (BRM; ratio BRG1 IC50 / BRM IC50) |
| --- | --- | --- | --- | --- | --- | --- | --- |
| O=C(NCc1cc2nc(-c3cccc(C4CC4)n3)ccc2cn1)c1cc(F)c2c(c1)S(=O)(=O)CCOC2 [Compound 63] | 21.4 nM | 29.53 | 633 nM | – | – | – | – |
| COCCN(C)c1cccc(-c2ccc3cnc(CNC(=O)c4cc(F)c5c(c4)S(=O)(=O)CCOC5)cc3n2)n1 [Compound 100] | 8 nM | 11.83 | 94.1 nM | – | – | – | – |
| C[C@H]1COCc2ccc(C(=O)NCc3cc4nc(-c5cccc(OC(F)(F)F)n5)ccc4cn3)cc2S1(=O)=O [Compound 388] | – | – | – | 18.4 nM | 31.86 | 587 nM | – |
| C[C@@H]1CN(c2cccc(-c3ccc4cnc(CNC(=O)c5ccc6c(c5)S(=O)(=O)[C@H](C)CC6)cc4n3)n2)C[C@H](C)O1 [Compound 362] | – | – | – | 16.9 nM | 14.06 | 238 nM | – |
| C[C@@H]1CN(c2cccc(-c3ccc4cnc([C@H](C)NC(=O)c5ccc6c(c5)S(=O)(=O)[C@@H](C)COC6)cc4n3)n2)C[C@H](C)O1 [Compound 325] | – | – | – | 10.6 nM | 16.33 | 174 nM | – |
| O=C(NCc1cc2nc(-c3cncc(C4CC4)n3)ccc2cn1)c1cc(F)c2c(c1)S(=O)(=O)CCOC2 [Compound 287] | 24.2 nM | 24.53 | 594 nM | – | – | – | – |
| C[C@@H]1CCS(=O)(=O)c2cc(C(=O)NCc3cc4nc(-c5cccc(N6C[C@@H](C)O[C@@H](C)C6)n5)ccc4cn3)cc(F)c2O1 [Compound 494] | – | – | – | 22.4 nM | 4.39 | 98.5 nM | – |
| Cc1ccc2c(n1)N(c1ccc3cnc(CNC(=O)c4ccc5c(c4)S(=O)(=O)CCOC5)cc3n1)CCC2 [Compound 315] | – | – | – | 18.4 nM | 18.47 | 340 nM | – |
| Cc1cnc2c(c1)OCCN2c1ccc2cnc(CNC(=O)c3ccc4c(c3)S(=O)(=O)C(C)COC4)cc2n1 (stereo not shown) [Compound 545] | – | – | – | 7.7 nM | 8.60 | 65.9 nM | – |
| CC1CCN(c2ccc3cnc(CNC(=O)c4ccc5c(c4)S(=O)(=O)CCOC5)cc3n2)c2ncccc21 (stereo not shown) [Compound 504] | – | – | – | 28.6 nM | 7.45 | 213 nM | – |
| CN(c1cccc(-c2ccc3cnc(CNC(=O)c4ccc5c(c4)S(=O)(=O)CCOC5)cc3n2)n1)[C@@H]1CCOC1 [Compound 116] | 22.6 nM | 10.43 | 236 nM | – | – | – | – |
| CCOCc1ccc2c(n1)N(c1ccc3cnc(CNC(=O)c4ccc5c(c4)S(=O)(=O)CCOC5)cc3n1)CCC2 [Compound 564] | – | – | – | 33.6 nM | 26.25 | 881 nM | – |
| C[C@H]1COCc2ccc(C(=O)NCc3cc4nc(-c5cccc(C6CC6)n5)ccc4cn3)cc2S1(=O)=O [Compound 331] | – | – | – | 13.5 nM | 30.98 | 418 nM | – |
| COC1CCS(=O)(=O)c2cc(C(=O)NCc3cc4nc(-c5cccc(N6C[C@@H](C)O[C@@H](C)C6)n5)ccc4cn3)ccc2C1 (stereo partly shown) [Compound 344] | – | – | – | 7.6 nM | 2.68 | 20.3 nM | – |
| O=C(NCc1cc2nc(N3CCOc4cc(C5CC5)ncc43)ccc2cn1)c1ccc2c(c1)S(=O)(=O)CCOC2 [Compound 739] | 12.7 nM | – | 221 nM | – | – | – | 17.37 |
| COCCN1CCOc2c(-c3ccc4cnc(CNC(=O)c5ccc(C(F)F)c(S(C)(=O)=O)c5)cc4n3)cccc21 [Compound 89] | 30.8 nM | 21.02 | 648 nM | – | – | – | – |
| C[C@@H]1C[C@H]1c1ccc2c(n1)N(c1ccc3cnc(CNC(=O)c4ccc5c(c4)S(=O)(=O)CCOC5)cc3n1)CCO2 [Compound 809] | 6.9 nM | – | 269 nM | – | – | – | 39.28 |
| COCCN(c1ccnc(C2CC2)n1)c1ccc2cnc(CNC(=O)c3ccc4c(c3)S(=O)(=O)CCOC4)cc2n1 [Compound 839] | – | – | – | – | – | – | 1.00 |
| CO[C@H](c1ccc2c(n1)N(c1ccc3cnc(CNC(=O)c4ccc5c(c4)S(=O)(=O)CCOC5)cc3n1)CCC2)C1CC1 [Compound 664] | – | – | – | 1750 nM | 2.86 | – | – |
| C[C@@H]1CN(c2cccc(-c3ccc4cnc(CNC(=O)c5ccc6c(c5)S(=O)(=O)CCC(C)(C)O6)cc4n3)n2)C[C@H](C)O1 [Compound 559] | – | – | – | 3930 nM | 1.27 | – | – |
| CC1CN(c2cccc(-c3ccc4cnc(CNC(=O)c5cnc6c(c5)S(=O)(=O)CCC5CC65)cc4n3)n2)CC(C)O1 (stereo not shown) [Compound 577] | – | – | – | – | 3.78 | – | – |
| C[C@@H]1COCc2ncc(C(=O)NCc3cc4nc(-c5cccc(C6CC6)n5)ccc4cn3)cc2S1(=O)=O [Compound 455] | – | – | – | – | 1.00 | – | – |
| C[C@@H]1CN(c2cccc(-c3ccc4cnc(CNC(=O)c5cc(C6(C)CC6)c6c(c5)S(=O)(=O)CCOC6)cc4n3)n2)C[C@H](C)O1 [Compound 351] | – | – | – | – | 1.00 | – | – |

Continued, values first:

| IC50 (BRM; ADP-Glo ATPase assay) | Ratio* (BRG1 IC50 (μM) divided by BRM IC50 (μM)) (BRM) | IC50 (BRG-1; ADP-Glo ATPase assay) | IC50 (BRM; [1]) | Ratio* (BRM; ratio of BRG1 IC50 to BRM IC50) | IC50 (BRG-1; [1]) | Ratio* (BRM; ratio BRG1 IC50 / BRM IC50) | Compound |
| --- | --- | --- | --- | --- | --- | --- | --- |
| 54.2 nM | 9.53 | 517 nM | – | – | – | – | COc1ccccc1-c1ccc2cnc(CNC(=O)c3ccc4c(c3)S(=O)(=O)CCOC4)cc2n1 [Compound 254] |
| – | – | – | 283 nM | 15.24 | 4320 nM | – | CN1CC[C@H](Oc2cccc(-c3ccc4cnc(CNC(=O)c5ccc6c(c5)S(=O)(=O)CCOC6)cc4n3)n2)C1 [Compound 342] |
| 92.3 nM | – | 801 nM | – | – | – | 8.67 | COc1nn(C(F)F)cc1-c1ccc2cnc(CNC(=O)c3ccc4c(c3)S(=O)(=O)CCOC4)cc2n1 [Compound 806] |
| – | – | – | 126 nM | 5.93 | 750 nM | – | CC1CN(c2ccc3cnc(CNC(=O)c4ccc5c(c4)S(=O)(=O)CCOC5)cc3n2)c2ncccc2N1C (stereo not shown) [Compound 649] |
| 9.5 nM | – | 159 nM | – | – | – | 16.66 | Cc1cc(F)c2c(c1)OCCN2c1ccc2cnc(CNC(=O)c3ccc4c(c3)S(=O)(=O)CCOC4)cc2n1 [Compound 764] |
| – | – | – | 43.3 nM | 9.72 | 420 nM | – | C[C@@H]1CCN(C)c2nc(-c3ccc4cnc(CNC(=O)c5ccc6c(c5)S(=O)(=O)CCOC6)cc4n3)ccc21 [Compound 695] |
| 24.9 nM | 10.11 | 252 nM | – | – | – | – | COc1cc(C(F)F)ccc1-c1ccc2cnc(CNC(=O)c3ccc4c(c3)S(=O)(=O)CCOC4)cc2n1 [Compound 118] |
| – | – | – | 59.7 nM | 7.10 | 424 nM | – | O=C(NCc1cc2nc(N3CCCc4c(C(F)F)ccnc43)ccc2cn1)c1ccc2c(c1)S(=O)(=O)CCOC2 [Compound 521] |
| 16.4 nM | – | 339 nM | – | – | – | 20.67 | Cc1nc2c(cc1F)OCCN2c1ccc2cnc(CNC(=O)c3ccc4c(c3)S(=O)(=O)CCOC4)cc2n1 [Compound 770] |
| 84 nM | – | 1050 nM | – | – | – | 12.50 | COc1ncccc1-c1ccc2cnc(CNC(=O)c3ccc4c(c3)S(=O)(=O)CCOC4)cc2n1 [Compound 808] |
| – | – | – | 10.9 nM | 17.27 | 188 nM | – | COc1nc(C(F)F)ccc1-c1ccc2cnc(CNC(=O)c3ccc4c(c3)S(=O)(=O)[C@@H](C)COC4)cc2n1 [Compound 405] |
| – | – | – | 290 nM | 4.12 | 1190 nM | – | O=C(NCc1cc2nc(-c3ccc4c(n3)OCCC4)ccc2cn1)c1ccc2c(c1)S(=O)(=O)CCOC2 [Compound 499] |
| – | – | – | 2230 nM | 2.24 | – | – | COC1Cc2cccnc2N(c2ccc3cnc(CNC(=O)c4ccc5c(c4)S(=O)(=O)CCOC5)cc3n2)C1 (stereo not shown) [Compound 633] |
